We go through 40 compounds from PubChem BioAssay AID449725 (University of Pittsburgh Molecular Library Screening Center, 2010).

Active and inactive are the calls of the source. The rule behind the calls is not given here.

The subject of this experiment is IMR-90 human lung fibroblast viability counter screen. The experiment in a line: IMR-90 fibroblast viability reduction, dose response, cytotoxicity control, cell-based, IC50 (AID 449725).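 Note: 48 hour compound exposure before the viability read.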
As for `Cn1sc(=O)c2ccccc21`, the concentration for half-maximal inhibition (IC50) is 18 µM.
In the case of `O=C(Cn1sc2ccccc2c1=O)Nc1cccc(Br)c1` it was > 25 µM (inactive); in that of `COc1ccc(CC(=O)Nc2cc(Cl)ccc2C(=O)O)cc1`, > 25 µM (inactive); in that of `COc1ccc2c(=O)n(-c3ccccc3)sc2c1`, > 25 µM (inactive).
In the case of `Cc1ccccc1-n1sc2cc(F)ccc2c1=O` it was 5.6 µM; in that of `CC(C)(C)c1ccc(C(=O)N2CCC(=O)c3ccc(Cl)cc32)cc1`, > 25 µM (inactive).
For the compound `O=C(Nc1cc(Cl)ccc1C(=O)O)c1ccc(-c2cccs2)cc1`, the IC50 is > 25 µM (inactive).
`Cc1ccc(-n2sc3ccccc3c2=O)cc1`: the IC50 was 18.3 µM.
`O=C(Nc1cc(Cl)ccc1C(=O)O)c1ccc(Cl)cc1`: the IC50 was > 25 µM (inactive).
In the case of `COc1ccc(C(=O)Nc2cc(C(F)(F)F)ccc2C(=O)O)cc1` it was > 25 µM (inactive); in that of `COc1ccc(C(=O)NC(CC(=O)O)c2ccccc2)cc1` (stereo not given), > 25 µM (inactive); in that of `O=c1ccsn1-c1ccccc1`, 5.79 µM.
In the case of `O=C(Cn1sc2ccccc2c1=O)Nc1ccc(F)cc1` it was 6.87 µM.
For `O=C(Nc1cc(Cl)ccc1C(=O)O)c1ccc(C(F)(F)F)cc1`, the IC50 was > 25 µM (inactive).
For `COc1ccc(C(=O)Nc2ccccc2-c2nn[nH]n2)cc1`, the IC50 was > 25 µM (inactive).
In the case of `O=c1cc(-c2ccccc2)sn1-c1ccccc1` it was 13.4 µM; in that of `O=C(O)c1ccccc1NC(=O)c1ccccc1C(=O)O`, > 25 µM (inactive); in that of `CCCc1ccc(C(=O)Nc2cc(Cl)ccc2C(=O)O)cc1`, > 25 µM (inactive).
In the case of `CC(C)Cc1ccc(C(=O)Nc2cc(Cl)ccc2C(=O)O)cc1` it was > 25 µM (inactive).
On to `COc1ccccc1C(=O)Nc1cc(Cl)ccc1C(=O)O`, for which the IC50 was > 25 µM (inactive).
For the compound `Cc1ccccc1NC(=O)Cn1sc2ccccc2c1=O`, the IC50 is 7.37 µM.
As to `COc1ccc(C(=O)Nc2c(C(=O)O)ccc(Cl)c2Cl)cc1`, the IC50 is > 25 µM (inactive).
Turning to `Cc1cccc(C(=O)Nc2cc(Cl)ccc2C(=O)O)c1`, the IC50 is > 25 µM (inactive).
Turning to `C=C(C)c1ccc(C(=O)Nc2cc(Cl)ccc2C(=O)O)cc1`, the IC50 is > 25 µM (inactive).
`CCc1ccc(C(=O)Nc2cc(Cl)ccc2C(=O)OC)cc1`: the IC50 was > 25 µM (inactive).
Consider `O=C(NCc1ccccc1)n1sc2ccccc2c1=O`, for which the IC50 was > 25 µM (inactive).
On to `CC(C)(C)c1ccc(C(=O)Nc2cc(Cl)ccc2C(=O)O)cc1`, for which the IC50 was > 25 µM (inactive).
In the case of `O=c1c2cc(N3CCOCC3)ccc2sn1-c1ccccc1` it was 20.9 µM; in that of `O=C(Nc1ccccc1)c1cc(F)ccc1S`, > 25 µM (inactive).
In the case of `COc1ccc(NC(=O)c2ccccc2SCc2ccccc2)cc1`, the IC50 is > 25 µM (inactive).
Turning to `COc1ccc(NC(=O)Nc2ccccc2C(=O)O)cc1`, the IC50 is > 25 µM (inactive).
As to `O=C(Nc1cc(Cl)ccc1C(=O)O)c1ccncc1`, the IC50 was > 25 µM (inactive).
`O=c1c2c(Br)cccc2sn1-c1ccccc1`: the IC50 is > 25 µM (inactive).
With `O=c1c2ccc(Br)cc2sn1-c1ccccc1`, the IC50 was > 25 µM (inactive).
In the case of `COc1ccccc1NC(=O)Cn1sc2ccccc2c1=O` it was 12.3 µM; in that of `COc1ccc(N2C(=O)c3ccc(Cl)cc3C2=O)cc1`, > 25 µM (inactive).
For the compound `O=c1c2ccccc2sn1-c1cccc(Cl)c1`, the IC50 is > 25 µM (inactive).
In the case of `COc1ccc(C(=O)Nc2cc(-c3ccccc3)ccc2C(=O)O)cc1`, the IC50 is > 25 µM (inactive).
As to `N#Cc1ccc(Oc2ccc3c(c2)B(O)OC3)cc1`, the IC50 is > 25 µM (inactive).
In the case of `COc1ccc(C(=O)Nc2cc(Cl)ccc2C(N)=O)cc1` it was > 25 µM (inactive).
